Test results reported in US20240300941A1, “HPK1 INHIBITORS, PREPARATION METHOD AND APPLICATION THEREOF” (ZHUHAI YUFAN BIOTECHNOLOGIES CO., LTD., priority 2018, published 2024).

Legend:
[1] = system: pSLP-76(Ser376) in Jurkat E6-1 cells; assay: Jurkat E6-1 pSLP-76(Ser376) HTRF experiment; type: cell-based; conditions: 4 hours compound incubation, anti-human CD3 antibody 20 minutes, Phospho-SLP-76 / SLP-76 HTRF
Procedure: Jurkat E6-1 cells were purchased from ATCC (Cat. No. TIB-152TM) and cultured overnight with RPMI 1640 containing 0.5% o FBS, after that 20 μL (10^7 cells/mL) cells were added to the experimental plates. Then the test compounds were diluted by three-fold gradient, and 10 different concentrations were prepared, and 5 μl of each was added to the experimental plate, and incubated for 4 hours in 37° C. incubator containing 5% CO2. Then 5 ul of 6× anti-human CD3 antibody (Biolegend, Cat. No. 300432) was added and incubated for 20 minutes in 37° C. incubator containing 5% CO2. Finally, the Phospho-SLP-76 and SLP-76 results were determined using the Cisbio Phospho-SLP-76 and SLP-76 HTRF assay kits (items: 63ADK076PEH and 63ADK077PEH, respectively). Based on the results, the IC50 of the compound is calculated.

[2] = biological target: HPK1 (Homo sapiens (Human), UniProt Q92918); assay: HPK1 ADP-Glo enzyme assay; type: biochemical; conditions: HPK1 protein 5 nM, MBP and ATP substrate, ADP-Glo readout
Chain of HPK1 (Q92918 whole entry): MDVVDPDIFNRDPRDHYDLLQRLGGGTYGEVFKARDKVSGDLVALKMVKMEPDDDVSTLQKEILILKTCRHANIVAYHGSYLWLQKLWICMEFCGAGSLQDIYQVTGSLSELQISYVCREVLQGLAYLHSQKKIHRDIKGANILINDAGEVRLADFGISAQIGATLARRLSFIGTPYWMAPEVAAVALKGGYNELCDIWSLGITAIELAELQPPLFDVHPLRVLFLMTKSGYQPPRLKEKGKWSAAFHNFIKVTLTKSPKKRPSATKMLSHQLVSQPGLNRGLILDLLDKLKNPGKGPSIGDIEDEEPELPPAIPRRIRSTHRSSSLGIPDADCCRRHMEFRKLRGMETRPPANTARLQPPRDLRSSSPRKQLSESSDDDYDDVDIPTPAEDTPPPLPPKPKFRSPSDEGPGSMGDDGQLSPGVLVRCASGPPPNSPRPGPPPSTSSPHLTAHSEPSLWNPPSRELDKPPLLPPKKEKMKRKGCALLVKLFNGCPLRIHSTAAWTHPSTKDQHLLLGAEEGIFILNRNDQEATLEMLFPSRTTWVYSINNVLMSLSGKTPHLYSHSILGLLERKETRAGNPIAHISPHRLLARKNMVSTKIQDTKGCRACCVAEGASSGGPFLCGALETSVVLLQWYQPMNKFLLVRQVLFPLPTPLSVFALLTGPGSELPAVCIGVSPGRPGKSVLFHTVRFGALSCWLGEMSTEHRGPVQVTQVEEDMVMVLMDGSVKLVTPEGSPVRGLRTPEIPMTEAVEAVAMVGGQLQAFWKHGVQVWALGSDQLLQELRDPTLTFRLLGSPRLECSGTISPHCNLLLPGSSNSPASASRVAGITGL
Procedure: The buffer used in the enzyme assay contains 5 mM MOPS (pH=7.2), 2.5 mM β-Glycerol Phosphate, 0.4 mM EDTA, 1 mM EGTA, 0.05 mM DTT, 5 mM MgCl2. The compound was dissolved in 100% DMSO at the concentration was 10 mM. The initial concentration of the test was 5 uM, and ten data points were diluted by three-fold gradient, and each point was repeatedly measured twice. The HPK1 protein was purchased from Thermo (Cat. No. PV6355) and diluted to 2× stock solution at the concentration of 10 nM (the final concentration of the enzyme assay was 5 nM). 2.5 µl of 2×HPK1 protein was added to each well of the plate containing the test compound, centrifuged at 1000 rpm for 30 seconds, and then incubated at 25° C. for 15 minutes. MBP protein was purchased from Millipore (Cat. No. 13-110) and ATP was purchased from Sigma (Cat. No. A7699-5G) and the two were formulated into 2× working solutions at concentrations of 4 uM and 80 uM. Added 2.5 μl mixture of 2×MBP and ATP, centrifuged at 1000 rpm for 30 seconds, then incubated at 25° C. for 90 minutes. Then added 5 ul of ADP-Glo™ (Promega, Cat. No. V9102) to the assay plate and incubated […] at 25° C. for 60 minutes. Finally, 10 ul of the kinase assay reagent (Promega, Cat. No. V9102) was added to the assay plate, centrifuged at 1000 rpm for 30 seconds at 25° C. for 60 minutes, and the […] intensity was determined.

Structure (SMILES)	IC50 [1] [nM]	IC50 [2] [nM]
Nc1ncc(-c2cnc(C3CCOCC3)s2)cc1OCc1ccncc1 [A13]	< 1000	–
CN1CCC(n2cc(-c3cnc(N)c(OCc4cccc(C#CC(C)(C)O)c4)c3)cn2)CC1 [A32]	< 1000	< 100
C=CC(C)(O)C#Cc1cccc(COc2cc(-c3cnc(C4CCN(C)CC4)s3)cnc2N)c1 (centres unmarked) [A64]	< 1000	< 100
Nc1ncc(-c2cnn(C3CCOCC3)c2)cc1OCc1cc(C#CC2(O)CC2)ccc1F [A51]	< 1000	< 100
Nc1ncc(-c2cnc(C3CCCCC3)s2)cc1OCc1ccncc1 [A37]	< 1000	–
CN1CCC(c2ncc(-c3cnc(N)c(OCc4cc(C#CC(C)(C)O)ccc4Cl)c3)s2)CC1 [A55]	< 1000	< 100
CC(C)(O)C#Cc1ccc(F)c(COc2cc(-c3cnc(C4CCNCC4)s3)cnc2N)c1 [A31]	< 1000	< 100
CN1CCC(c2ncc(-c3cnc(N)c(OCc4cccc(C#CC5(O)CCC5)c4)c3)s2)CC1 [A40]	< 1000	–
CN1CCC(c2ncc(-c3cnc(N)c(OCc4cncc(C#CC(C)(C)O)c4)c3)s2)CC1 [A44]	1000 to 50000	< 100
CC(C)(O)C#Cc1cccc(COc2cc(-c3cnn(C4CCNCC4)c3)cnc2N)c1 [A79]	–	< 100
Cc1nc(C2CCN(C)CC2)sc1-c1cnc(N)c(OCc2ccncc2)n1 [A15]	–	100 to 1000
CN1CCC(c2ncc(-c3cnc(N)c(OCc4cc(C#CC(C)(C)O)cc(CN)c4)c3)s2)CC1 [A83]	–	< 100
CN1CCC(c2ncc(-c3cnc(N)c(OCc4cccc(C#CC(C)(C)O)c4)c3)s2)C1 (centres unmarked) [A72]	–	< 100
CN1CCN(c2ncc(-c3cnc(N)c(OCc4cccc(C#CC(C)(C)O)c4)c3)s2)CC1 [A25]	< 1000	< 100
CC(C)(O)C#Cc1cccc(COc2cc(-c3cnc(N4CCCCC4)s3)cnc2N)c1 [A29]	–	100 to 1000
CC(C)(O)C#Cc1ccc(CN)c(COc2cc(-c3cnc(C4CCOCC4)s3)cnc2N)c1 [A84]	–	< 100
CC1CN(C)CCN1c1ncc(-c2cnc(N)c(OCc3cccc(C#CC(C)(C)O)c3)c2)s1 (centres unmarked) [A63]	< 1000	< 100
CC(C)c1ncc(-c2cnc(N)c(OCc3cc(C#CC(C)(C)O)cc(CN)c3)c2)s1 [A70]	–	< 100
Nc1ncc(-c2cnn(C3CCNCC3)c2)cc1OCc1cccc(C#CC2(O)CC2)c1 [A54]	< 1000	< 100
CC(C)(O)C#Cc1cccc(COc2cc(-c3cnc(C4CCCNC4)s3)cnc2N)c1 (centres unmarked) [A56]	< 1000	< 100

Structure (SMILES)	IC50 [1] [nM]	IC50 [2] [nM]
CC(C)c1ncc(-c2cnc(N)c(OCc3cncc(C#CC(C)(C)O)c3)c2)s1 [A45]	1000 to 50000	100 to 1000
CC(C)c1ncc(-c2cnc(N)c(OCc3cc(C#CC(C)(C)O)ccc3F)c2)s1 [A21]	< 1000	< 100
COc1ccc(C#CC(C)(C)O)cc1COc1cc(-c2cnc(C3CCN(C)CC3)s2)cnc1N [A59]	< 1000	< 100
CN1CCC(c2ncc(-c3cnc(N)c(OCc4ccnc(C#N)c4)c3)s2)CC1 [A11]	1000 to 50000	100 to 1000
CC(C)c1ncc(-c2cnc(N)c(OCc3ccncc3)c2)s1 [A36]	1000 to 50000	–
Nc1ncc(-c2cnc(C3CCOCC3)s2)cc1OCc1cc(C#CC2(O)CC2)ccc1F [A46]	< 1000	< 100
CN1CCC(c2ncc(-c3cnc(N)c(OCc4cccc(C#CC5(O)CCCC5)c4)c3)s2)CC1 [A34]	< 1000	–
CN1CCC(n2cc(-c3cnc(N)c(OCc4cc(C#CC(C)(C)O)ccc4F)c3)cn2)CC1 [A73]	–	< 100
CN1CCC(c2ncc(-c3cnc(N)c(OCc4cccc(C#CC(C)(C)O)c4)c3)s2)CC1 [A3]	< 1000	–
CN1CCN(c2ncc(-c3cnc(N)c(OCc4ccncc4)c3)s2)CC1 [A12]	< 1000	–
Nc1ncc(-c2cnc(C3CCNCC3)s2)cc1OCc1cccc(C#CC2(O)CC2)c1 [A52]	< 1000	< 100
CN1CCC(c2ccc(-c3cnc(N)c(OCc4ccncc4)c3)nc2)CC1 [A43]	1000 to 50000	100 to 1000
CCC(C)c1ncc(-c2cnc(N)c(OCc3cccc(C#CC(C)(C)O)c3)c2)s1 (centres unmarked) [A20]	1000 to 50000	< 100
CC1CN(c2ncc(-c3cnc(N)c(OCc4cccc(C#CC(C)(C)O)c4)c3)s2)CCN1C (centres unmarked) [A22]	< 1000	< 100
CN1CCC(c2ncc(-c3cnc(N)c(OCc4cc(C#CC(C)(C)O)ccc4C(F)(F)F)c3)s2)CC1 [A76]	–	< 100
CC(C)c1ncc(-c2cnc(N)c(OCc3cccc(C#CC(C)(C)O)c3)c2)s1 [A41]	1000 to 50000	–
Cc1cc(C#CC(C)(C)O)cc(COc2cc(-c3cnc(C4CCN(C)CC4)s3)cnc2N)c1 [A71]	< 1000	< 100
CN1CCC(n2cc(-c3cnc(N)c(OCc4cccc(C#CC(C)(O)CF)c4)c3)cn2)CC1 (centres unmarked) [A74]	–	< 100
CC(C)(O)C#Cc1cccc(COc2cc(-c3cnc(C4CCN(CC(F)(F)F)CC4)s3)cnc2N)c1 [A27]	1000 to 50000	< 100
CC1CN(c2ncc(-c3cnc(N)c(OCc4cccc(C#CC(C)(C)O)c4)c3)s2)CC(C)N1C (centres unmarked) [A26]	< 1000	< 100

Structure (SMILES)	IC50 [1] [nM]	IC50 [2] [nM]
CSc1ncc(-c2cnc(N)c(OCc3cccc(C#CC(C)(C)O)c3)c2)s1 [A17]	1000 to 50000	< 100
CC(Oc1cc(-c2cnc(C3CCN(C)CC3)s2)cnc1N)c1ccncc1 (centres unmarked) [A4]	1000 to 50000	100 to 1000
CN1CCC(c2ncc(-c3cnc(N)c(OCc4cccc(C#CC5(O)CCCCC5=O)c4)c3)s2)CC1 (centres unmarked) [A61]	–	100 to 1000
CN1CCC(c2ccnc(-c3cnc(N)c(OCc4cccc(C#CC(C)(C)O)c4)c3)c2)CC1 [A58]	–	100 to 1000
CN1CCCN(c2ncc(-c3cnc(N)c(OCc4cccc(C#CC(C)(C)O)c4)c3)s2)CC1 [A24]	< 1000	< 100
Nc1ncc(-c2cccc(N3CCOCC3=O)c2)cc1OCc1ccncc1 [A85]	–	> 1000
CC(C)(O)C#Cc1cccc(COc2cc(-c3cnn(C4CCOCC4)c3)cnc2N)c1 [A80]	–	< 100
CC(C)c1ncc(-c2cnc(N)c(OCc3cc(C#CC(C)(C)O)ccc3CN)c2)s1 [A67]	–	< 100
CN1CCC(c2ncc(-c3cnc(N)c(OCc4ccc(F)c(C#CC(C)(C)O)c4)c3)s2)CC1 [A75]	–	< 100
CC(C)(O)C#Cc1cccc(COc2cc(-c3cnc(Oc4ccccc4)s3)cnc2N)c1 [A18]	–	100 to 1000
CC(C)(O)C#Cc1cccc(COc2cc(-c3cnc(C4CCCCC4)s3)cnc2N)c1 [A30]	–	100 to 1000
CN1CCC(c2ncc(-c3cnc(N)c(OCc4ccnc(Cl)c4)c3)s2)CC1 [A8]	1000 to 50000	–
CN1CCC(c2ncc(-c3cnc(N)c(OCc4ccnc(C#CC(C)(C)O)c4)c3)s2)CC1 [A10]	< 1000	–
Nc1ncc(-c2cnc(C3CCNCC3)s2)cc1OCc1ccncc1 [A7]	< 1000	–
CN1CCN(C2CCN(c3ncc(-c4cnc(N)c(OCc5cccc(C#CC(C)(C)O)c5)c4)s3)CC2)CC1 [A69]	–	< 100
CC(C)(O)C#Cc1cc(CN)cc(COc2cc(-c3cnc(C4CCOCC4)s3)cnc2N)c1 [A81]	–	< 100
CC(C)(O)C#Cc1cccc(COc2cc(-c3cnc(C4CCNCC4)s3)cnc2N)c1 [A42]	< 1000	–
CN1CCC(c2ncc(-c3cnc(N)c(OCc4cccc(C#CC(C)(O)C(F)(F)F)c4)c3)s2)CC1 (centres unmarked) [A33]	–	> 1000
